Data: a melting point compilation (Tetko et al.; mined from patent text by program, amines drawn as free bases though some values may be those of a salt)

Going from `CCOC(=O)C(O)c1cc(Br)cn1CCOC(C)=O` (stereo unspecified) to `COC(=O)CCn1c(C(=O)O)c(C)c2cc(C)ccc21`, the melting point rises from 59 °C to 169 °C.

Compared with `Cc1ccc(C(=O)CCC(=O)c2ccccc2)s1`, `O=C(O)CCc1ccc(C(=O)NCc2ccccn2)cc1` is lower in melting point: 122 °C for the first, 83.8 °C for the second.

Compared with `COc1cc2c(cc1OC)CC(=O)N(Cc1cccnc1)C=C2`, `COc1cc2c(cc1OC)-c1cc3cc(O)ccc3n1C2=O` is higher in melting point: 144 to 146 °C for the first, over 260 °C for the second.

First: Cc1nc(C(C)C)c(Sc2cccc(Cl)c2)[nH]1
Second: CC(=O)Nc1c(C(=O)c2cccc(C)n2)[nH]c2cc(Cl)ccc12
The melting point of the first is lower: 91 to 94 °C for the first, 195 to 196 °C for the second.

Compared with `CC[C@H]1COC(=O)N1c1nc(-c2ccc(Br)cc2)c(F)s1`, `Oc1ccc(C2COC(c3c(F)cccc3F)=N2)cc1` (stereo unspecified) is higher in melting point: 105 to 107 °C for the first, 145 to 147 °C for the second.

Compared with `CN1CCN(c2cccc(-c3ccc(C#N)c(=O)[nH]3)c2)CC1`, `CN1CCC(CC(=O)N2c3ccccc3C(=O)Nc3cccc(Cl)c32)CC1` is lower in melting point: 264 to 267 °C for the first, 112 °C for the second.

Compared with `NC(=O)C1=C(O)C(NC(=S)c2ccccc2)C2CC3Sc4c(Cl)ccc(O)c4C(=O)C3=C(O)C2(O)C1=O` (stereo unspecified), `COC(=O)Nc1nc(C)c(-c2nc3ccccc3c(=O)n2-c2ccccc2)s1` is higher in melting point: 222 °C for the first, over 275 °C for the second.

First: CCNC(=O)c1cc(N)ccc1Oc1cncc(Cl)c1
Second: COC(=O)c1cc(C#N)c2cc(Cc3ccc(F)cc3)cnc2c1O
The melting point of the first is lower: 126 to 128 °C for the first, 178 to 179 °C for the second.

First: Clc1ccc(Cn2ccc3cc(OCc4ccncc4)ccc32)cc1
Second: O=C(NCc1ccc(Cl)cc1)c1cnc2ccc(-c3ccccc3)cc2c1O
The melting point of the first is lower: 105 to 107 °C for the first, 255 to 257 °C for the second.

Compared with `O=C(NC1CCCc2cc(C(=O)Nc3ccncc3)ccc21)OCc1ccccc1` (stereo unspecified), `COc1ccc(Cc2cc(C3CCN(C(=O)NCc4ccccc4)CC3)nc(N)n2)cc1` is lower in melting point: 157 to 159 °C for the first, 128 to 131 °C for the second.

First: C=CCOC(=O)C(C#N)=C1Nc2ccccc2O1
Second: O=C(O)C1=COc2ccccc2O1
The melting point of the first is lower: 181 to 183 °C for the first, 183 to 184 °C for the second.

First: CCc1cn(S(C)(=O)=O)c2c1C(=O)CC(c1ccccc1)C2 (stereo unspecified)
Second: CC(=O)CCN1c2ccccc2NC(=O)C1C (racemic)
The melting point of the first is higher: 153 to 154 °C for the first, 108 to 109 °C for the second.

First: c1ccc(OCCSCc2nnc(-c3ccc(OCCCN4CCSCC4)cc3)o2)cc1
Second: c1ccc(OCCN2CCN(Cc3c[nH]c4ncccc34)CC2)cc1
The melting point of the first is lower: 85 °C for the first, 143 °C for the second.

First: Cc1ccc(S(=O)(=O)N(C(N)=O)c2cccc(Br)n2)cc1
Second: CC(C)=CCC(CC=C(C)C)(C(=O)NO)S(=O)(=O)c1ccc(C)cc1
The melting point of the first is higher: over 310 °C for the first, 108 to 110 °C for the second.

First: COc1ccc(OCC(O)CN2CCC3(CC2)CNC(=O)O3)cc1 (stereo unspecified)
Second: Cc1ccc(CC2(O)CCN(CCOC(=O)c3ccc(OCc4ccccc4)cc3)CC2)cc1
The melting point of the first is higher: 151 to 153 °C for the first, 102 °C for the second.

First: O=C(O)CCCCCCCCCCCCCCCCC(=O)n1nnc2ccccc21
Second: CC(=O)c1ccc(OCCCCCCCCCCOc2ccccc2)o1
The melting point of the first is higher: 105 °C for the first, 74 to 77 °C for the second.

First: CCCCc1nc(C)c(CC(=S)N2CCC2)c(=O)n1Cc1ccc(-c2ccccc2-c2nnn[nH]2)cc1
Second: NCc1ccc(-c2ccccc2-c2nnn[nH]2)cc1
The melting point of the first is lower: 92.4 to 93.8 °C for the first, over 260 °C for the second.

Compared with `O=C(OC1CCCCC1)c1cncn1C(c1ccccc1)c1ccccn1` (stereo unspecified), `O=C(Nc1c[nH]nc1C(=O)NCCNc1ccccc1)c1ccccn1` is higher in melting point: 161 °C for the first, 184 to 186 °C for the second.

First: Cc1c(F)c(F)c(O)c2c(=O)c(C(=O)O)cn(-c3cc(N)c(F)cc3F)c12
Second: CCOC(=O)c1cn(-c2nc(NCc3ccc(OC)cc3)c(F)cc2F)c2c(F)c(F)c(F)c(F)c2c1=O
The melting point of the first is higher: over 280 °C for the first, 203 to 208 °C for the second.

First: CSc1nc(F)cc2nnc(SCc3ccccc3)n12
Second: CSc1ncc(OCc2cccnc2)c(=O)[nH]1
The melting point of the first is lower: 74 to 77 °C for the first, 186 to 187 °C for the second.

First: COc1cc(NC(=O)C2C(=O)N(C)C(=S)N(C)C2=O)ccc1Oc1ccc(C(F)(F)F)cc1Cl
Second: CC1(CCOc2ccc(/C=C/C(=O)O)c(Oc3ncc(C(F)(F)F)cc3Cl)c2)OCCO1
The melting point of the first is higher: 178 to 182 °C for the first, 144 to 146 °C for the second.

First: Cc1cc(O)c(SCC(C)C)c(=O)o1
Second: COC(=O)c1sc(C)c(C)c1O
The melting point of the first is higher: 106 to 108 °C for the first, 52 to 54 °C for the second.

First: N#Cc1cnc2cc3c(cc2c1Cl)ncn3CCN1CCOCC1
Second: CC(=O)Nc1nc2c(s1)-c1nc(N3CCOCC3)ncc1C2
The melting point of the first is lower: 205 to 207 °C for the first, over 300 °C for the second.

First: O=C(CNCc1cccc(-c2ccc(CC(Nc3ccccc3C(=O)c3ccccc3)C(=O)O)cc2)c1)c1ccccc1 (stereo unspecified)
Second: COC(=O)c1ccc(CNC(=O)C2Cc3ccccc3N2S(=O)(=O)c2ccc(-c3cccc(C(F)(F)F)c3)cc2)cc1 (stereo unspecified)
The melting point of the first is higher: 90 °C for the first, 70 °C for the second.

First: Cc1ccc(S(=O)(=O)N2CCCC(CC(C#N)(c3ccc(F)cc3)c3ccc(F)cc3)C2)cc1 (stereo unspecified)
Second: Cc1ccc(-c2c(NS(=O)(=O)c3ccc(C(C)(C)C)cc3)ncnc2OCCOc2ccc(C(C)O)cc2)cc1 (stereo unspecified)
The melting point of the first is lower: 142 to 143 °C for the first, 176 to 178 °C for the second.

First: CNC(=O)C(CC(=O)N(CC(=O)NO)CC(C)C)CC(C)C (stereo unspecified)
Second: CC(C)[C@H](NC(=O)c1ccccc1)C(=O)NCC(=O)O
The melting point of the first is lower: 60.5 to 61.5 °C for the first, 190 to 191 °C for the second.

First: COC(=O)[C@H](CCC(=O)NCCc1ccc(O)c(OCc2ccccc2)c1)NC(=O)OCc1ccccc1
Second: O=P(c1ccccc1)(c1ccccc1)c1cc(O)ccc1O
The melting point of the first is lower: 110 to 115 °C for the first, 216 to 218 °C for the second.

First: OCCCCOc1cnc(-c2ccccc2)c(-c2ccccc2)n1
Second: Cn1cc(Oc2ccccc2)c(=O)c(-c2ccccc2)c1
The melting point of the first is lower: 93 to 95 °C for the first, 176 to 177 °C for the second.

First: COc1ccc(CNc2c([N+](=O)[O-])cc(Br)c3ccccc23)c(OC)c1
Second: COc1ccc2[nH]cc(/C=C/c3cc(/C=C/c4ccc(OCc5ccccn5)cc4OC)[nH]n3)c2c1
The melting point of the first is lower: 104 to 105 °C for the first, 189 to 195 °C for the second.

Compared with `CCOC(=O)C1=Cc2cc(SC)ccc2OC1C(F)(F)F` (stereo unspecified), `CCOC(=O)C1=C(C)NC(=O)N(C(=O)OC(C)C)C1c1cccc([N+](=O)[O-])c1` (stereo unspecified) is higher in melting point: 87.8 to 89.6 °C for the first, 128 to 129 °C for the second.

First: CC(C)(C)C(O)C(=Cc1ccc2ccccc2c1)n1cncn1 (stereo unspecified)
Second: CC(C)(C)C(O)C(Cn1ccnc1)Oc1ccc(Cl)cc1 (stereo unspecified)
The melting point of the first is lower: 122 to 124 °C for the first, 163 to 170 °C for the second.

Compared with `NCC1Cc2cccc(-c3cccc(Cl)c3)c2O1` (stereo unspecified), `CN(C(=O)OC(C)(C)C)c1cc(Oc2ccc(-c3ccccc3)cc2)ccc1N` is lower in melting point: 150 to 154 °C for the first, 122 to 123 °C for the second.

First: O=S(=O)(O)c1cc(O)ccc1O
Second: O=C(O)Cc1ccn2c(=O)c(C(=O)O)ccc2c1
The melting point of the first is lower: 164 to 167 °C for the first, over 250 °C for the second.

First: CC(O)(CCBr)C1CCCCC1 (stereo unspecified)
Second: O=C(C1CCCCC1CO)N1CCCC1 (stereo unspecified)
The melting point of the first is lower: 31 to 33 °C for the first, 115 °C for the second.

First: NC(=O)CNC(=O)c1cc(Cl)nc(Cl)c1
Second: COCCOC(=O)Nc1cc(N2CC=CCC2)nc2nc(=O)on12
The melting point of the first is higher: 211 to 213 °C for the first, 195 to 196 °C for the second.

First: Cc1nc(C)c(Cl)c(NCc2nccc(OCCCCSCCn3c([N+](=O)[O-])cnc3C)c2C)n1
Second: CCCOc1cc(COc2c(CC)cccc2CC(=O)O)n(Cc2ccc3ccccc3n2)n1
The melting point of the first is higher: 114 to 117 °C for the first, 110 to 111 °C for the second.

First: COC(=O)c1c(Cl)cc(Cl)cc1NC(=O)CSc1ccc(NC(=S)Nc2cccc(Cl)c2)cc1
Second: COC(=O)C(=O)c1ccc(C(=O)NCCOc2ccc3ccccc3c2)cc1
The melting point of the first is higher: 148 to 150 °C for the first, 114 to 115 °C for the second.

First: CC(C)(O)CCCCC(C)(C)O
Second: CN(CC(=O)O)Cc1cc(C(=O)c2cccs2)cc(C(C)(C)C)c1O
The melting point of the first is lower: 87 °C for the first, 180 to 182 °C for the second.

First: CCOC(=O)N1CCC(N)(CC#N)CC1
Second: Cc1ccc(CC(CC(=O)N2CC3CC=CCC3C2)C(=O)O)cc1 (stereo unspecified)
The melting point of the first is lower: 68 to 69 °C for the first, 140 to 141 °C for the second.

Compared with `COC(=O)Cn1cc([C@H]2CCC3C4CC=C5C[C@@H](O)CC[C@]5(C)C4CC[C@@]32C)nn1` (stereo partly specified), `COc1ccc2c3c1OC1C[C@@H](O)C=CC31CCN(C(=O)NC(C)C)C2` (stereo partly specified) is lower in melting point: 221 to 223 °C for the first, 106 to 108 °C for the second.

First: Cc1nc(Sc2ccc(C(=O)O)cn2)sc1CC(=O)O
Second: O=C(O)CNC(=O)CSCCCCc1ccc2c(c1)OCO2
The melting point of the first is higher: 226 to 228 °C for the first, 95 to 96 °C for the second.

Compared with `O=C(O)CNCCn1nc(-c2c(-c3ccccc3)nn3ccccc23)ccc1=O`, `CC(C)(C)OC(=O)N1CCN(c2nccc(Oc3ccc(NC(=O)c4cc(F)cc(N5CCCCC5)c4)c4ccccc34)n2)CC1` is lower in melting point: 230 to 232 °C for the first, 175 to 177 °C for the second.

Compared with `O=P(O)(O)C(c1cccc(C(F)(F)F)c1)c1cccc(C(F)(F)F)c1`, `O=C1N(Cc2ncccc2C(F)(F)F)c2cccnc2C12COc1cc3c(cc12)OCCO3` (stereo unspecified) is higher in melting point: 191 to 193 °C for the first, over 250 °C for the second.

First: O=C(NN1CCOCC1)C(CS)Cc1c(Cl)cccc1Cl (stereo unspecified)
Second: O=C1CC2CCCCC2=NN1c1ccc(Cl)cc1F (stereo unspecified)
The melting point of the first is higher: 142 °C for the first, 110 to 112 °C for the second.

Compared with `COc1ccc(C2=NN(C3CCCC3)C(=O)[C@H]3CC=CC[C@@H]23)cc1O` (relative stereo), `N#Cc1ccc(O[C@@H]2c3cccnc3C[C@H]2N2CCC[C@@H](N)C2)c(Cl)c1` is higher in melting point: 142 to 144 °C for the first, 172 °C for the second.

`Cc1nc2c(Cl)cc3nc(O)c(O)nc3c2nc1C` and `O=C(O)c1nc2cc(-n3ccnc3)c([N+](=O)[O-])cc2[nH]c1=O` cannot be ordered by melting point: over 300 °C for the first, over 300 °C for the second.

First: CN1C(=O)NC(=O)C1=Cc1cc(OCCCC(=O)N(C)C2CCCCC2)ccc1[N+](=O)[O-]
Second: CC1CCN(C2=NCC(=O)N(C)c3ccccc32)CC1
The melting point of the first is higher: 149 to 154 °C for the first, 106 to 108 °C for the second.

Compared with `O=C(CCn1cnc2c(=O)[nH]cnc21)NC1CCSC1=O` (stereo unspecified), `CCc1c(CCN2CCC(c3noc4cc(F)ccc34)CC2)sc2c1NC(=O)CCC2` is lower in melting point: 228 to 230 °C for the first, 115 to 117 °C for the second.

Compared with `COc1ccc(-c2c(Cl)ncn2-c2ccc(S(=O)(=O)NC(C)(C)C)cc2)cc1F`, `CC(=O)OC1CSC(Oc2cncc(-c3ccc(OC(C)C)cc3)c2)C(OC(C)=O)C1OC(C)=O` (stereo unspecified) is lower in melting point: 208 to 210 °C for the first, 135 °C for the second.

Compared with `CC(C)(C)NC(=S)Nc1cc(F)cc(F)c1`, `NC(=O)c1ccc(F)c(F)c1Cl` is higher in melting point: 140 to 142 °C for the first, 142 to 143 °C for the second.

Work on `CCOC(C)Oc1ccc2c(c1C=O)OCO2` (stereo unspecified) yielded a melting point of 48 to 50 °C.
